# Measurements taken from US20140128599A1, “BENZOXAZOLE KINASE INHIBITORS AND METHODS OF USE” (Intellikine LLC La Jolla, priority 2008, published 2014).
# Assays:
# Format in all cases: biochemical
# mTOR = target: T1, mTOR (Homo sapiens, UniProt P42345); test: mTOR kinase inhibition assay
# T1 construct: purchased Invitrogen
# Procedure: The compounds described herein can be tested against recombinant mTOR (Invitrogen) in an assay containing 50 mM HEPES, pH 7.5, 1 mM EGTA, 10 mM MgCl2, 2.5 mM, 0.01% Tween, 10 μM ATP (2.5 μCi of μ-32P-ATP), and 3 μg/mL BSA. Rat recombinant PHAS-1/4EBP1 (Calbiochem; 2 mg/mL) is used as a substrate. Reactions are terminated by spotting onto nitrocellulose, which is washed with 1M NaCl/1% phosphoric acid (approximately 6 times, 5-10 minutes each). Sheets are dried and the transferred radioactivity quantitated by phosphorimaging.
# This assay is a time resolved FRET platform that measures the phosphorylation of GFP labeled 4EBP1 by mTOR kinase. The kinase reaction is performed in a white 384 well microtitre plate. The total reaction volume is 20 ul per well and the reaction buffer composition is 50 mM HEPES pH7.5, 0.01% Polysorbate 20, 1 mM EGTA, 10 mM MnCl2, and 2 mM DTT. In the first step, each well receives 2 ul of test compound in 20% dimethylsulphoxide resulting in a 2% DMSO final concentration. Next, 8 ul of mTOR diluted in reaction buffer is added per well for a 60 ng/ml final concentration. To start the reaction, 10 ul of an ATP/GFP-4EBP1 mixture (diluted in reaction buffer) is added per well for a final concentration of 10 uM ATP and 0.5 uM GFP-4EBP1. The plate is sealed and incubated for 1 hour at room temperature. […] The plate is sealed, incubated for 1 hour at room temperature, and then read on a plate reader set up for LanthaScreen™ TR-FRET. Data is analyzed and IC50s are generated using GraphPad Prism 5.
# PI3K γ = target: T2, PI3K γ (Homo sapiens, UniProt P48736); test: PI3K kinase inhibition assay (p110γ)
# T2 construct: purchased Sigma
# Procedure: IC50 values are measured using either a standard TLC assay for lipid kinase activity (described below) or a high-throughput membrane capture assay. Kinase reactions are performed by preparing a reaction mixture containing kinase, inhibitor (2% DMSO final concentration), buffer (25 mM HEPES, pH 7.4, 10 mM MgCl2), and freshly sonicated phosphatidylinositol (100 μg/ml). Reactions are initiated by the addition of ATP containing 10 μCi of γ-32P-ATP to a final concentration 10 or 100 μM and allowed to proceed for 5 minutes at room temperature. For TLC analysis, reactions are then terminated by the addition of 105 μl 1N HCl followed by 160 μl CHCl3:MeOH (1:1). The biphasic mixture is vortexed, briefly centrifuged, and the organic phase is transferred to a new tube using a gel loading pipette tip precoated with CHCl3. […] The TLC plates are then dried, exposed to a phosphorimager screen (Storm, Amersham), and quantitated.
# Briefly, the assay is a time resolved FRET assay that indirectly measures PIP3 product formed by the activity of a PI3-K. The kinase reaction is performed in a microtitre plate (e.g., a 384 well microtitre plate). The total reaction volume is approximately 20 ul per well. In the first step, each well receives 2 ul of test compound in 20% dimethylsulphoxide resulting in a 2% DMSO final concentration. Next, approximately 14.5 ul of a kinase/PIP2 mixture (diluted in 1× reaction buffer) is added per well for a final concentration of 0.25-0.3 ug/ml kinase and 10 uM PIP2. The plate is sealed and incubated for 15 minutes at room temperature. To start the reaction, 3.5 ul of ATP (diluted in 1× reaction buffer) is added per well for a final concentration of 10 uM ATP. The plate is sealed and incubated for 1 hour at room temperature. The reaction is stopped by adding 5 ul of Stop Solution per well and then 5 ul of Detection Mix is added per well. The plate is sealed, incubated for 1 hour at room temperature, and then read on an appropriate plate reader. Data is analyzed and IC50s are generated using GraphPad Prism 5.
# PI3K α = target: T3, PI3K α (Homo sapiens, UniProt P42336); test: PI3K kinase inhibition assay (p110α/p85α)
# T3 construct: purchased Upstate
# PI3K β = target: T4, PI3K β (Homo sapiens, UniProt P42338); test: PI3K kinase inhibition assay (p110β/p85α)
# T4 construct: purchased Upstate
# PI3K δ = target: T5, PI3K δ (Homo sapiens, UniProt O00329); test: PI3K kinase inhibition assay (p110δ/p85α)
# T5 construct: purchased Upstate
# T5 sequence (O00329 whole entry): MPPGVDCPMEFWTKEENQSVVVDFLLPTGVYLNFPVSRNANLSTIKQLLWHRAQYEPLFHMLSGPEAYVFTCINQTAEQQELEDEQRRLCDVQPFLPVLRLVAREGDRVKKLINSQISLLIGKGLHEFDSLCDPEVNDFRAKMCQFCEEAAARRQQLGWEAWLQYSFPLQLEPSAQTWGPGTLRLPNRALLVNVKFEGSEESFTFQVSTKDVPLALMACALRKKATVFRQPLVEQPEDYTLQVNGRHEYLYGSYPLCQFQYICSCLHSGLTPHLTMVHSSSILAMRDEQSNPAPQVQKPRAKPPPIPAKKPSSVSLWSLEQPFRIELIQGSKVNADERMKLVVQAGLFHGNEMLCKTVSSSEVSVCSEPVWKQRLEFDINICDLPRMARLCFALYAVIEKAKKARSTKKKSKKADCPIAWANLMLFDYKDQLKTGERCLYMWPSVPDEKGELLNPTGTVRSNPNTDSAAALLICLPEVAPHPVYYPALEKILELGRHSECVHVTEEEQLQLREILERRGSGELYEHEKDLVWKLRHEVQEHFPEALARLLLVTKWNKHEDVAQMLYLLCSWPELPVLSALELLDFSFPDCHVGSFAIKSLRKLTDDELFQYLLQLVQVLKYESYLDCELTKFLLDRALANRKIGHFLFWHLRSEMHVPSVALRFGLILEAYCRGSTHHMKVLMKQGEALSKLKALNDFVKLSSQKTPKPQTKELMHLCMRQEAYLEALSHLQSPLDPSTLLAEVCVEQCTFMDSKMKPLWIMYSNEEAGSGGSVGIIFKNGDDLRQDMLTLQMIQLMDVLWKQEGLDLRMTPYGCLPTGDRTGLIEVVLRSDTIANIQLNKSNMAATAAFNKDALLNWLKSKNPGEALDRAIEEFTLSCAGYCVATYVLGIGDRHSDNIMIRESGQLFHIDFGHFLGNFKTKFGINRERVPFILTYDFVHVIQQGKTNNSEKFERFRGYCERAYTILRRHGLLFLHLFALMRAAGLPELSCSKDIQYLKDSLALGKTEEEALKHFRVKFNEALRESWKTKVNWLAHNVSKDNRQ
# T5 sequence (P27986 whole entry partner): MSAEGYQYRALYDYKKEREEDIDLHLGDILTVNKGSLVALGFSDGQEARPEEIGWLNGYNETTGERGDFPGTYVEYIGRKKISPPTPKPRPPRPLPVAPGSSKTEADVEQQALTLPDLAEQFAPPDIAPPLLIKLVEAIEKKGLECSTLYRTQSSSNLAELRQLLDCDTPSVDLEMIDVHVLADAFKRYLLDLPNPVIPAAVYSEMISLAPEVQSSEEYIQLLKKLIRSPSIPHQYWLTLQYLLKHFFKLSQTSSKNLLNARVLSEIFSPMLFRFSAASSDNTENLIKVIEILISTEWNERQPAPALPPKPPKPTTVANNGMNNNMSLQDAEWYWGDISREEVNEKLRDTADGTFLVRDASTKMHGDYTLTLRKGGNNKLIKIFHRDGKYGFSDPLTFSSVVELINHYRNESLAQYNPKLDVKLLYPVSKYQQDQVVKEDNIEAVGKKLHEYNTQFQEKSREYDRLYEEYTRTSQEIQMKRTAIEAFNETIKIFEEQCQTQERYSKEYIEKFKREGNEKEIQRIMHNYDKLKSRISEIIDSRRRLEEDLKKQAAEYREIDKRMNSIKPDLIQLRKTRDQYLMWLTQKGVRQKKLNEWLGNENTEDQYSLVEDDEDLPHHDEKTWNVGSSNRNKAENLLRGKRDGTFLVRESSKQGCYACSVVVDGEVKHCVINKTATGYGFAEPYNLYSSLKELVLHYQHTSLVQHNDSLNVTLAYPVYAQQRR
# T3 sequence (P42336 whole entry): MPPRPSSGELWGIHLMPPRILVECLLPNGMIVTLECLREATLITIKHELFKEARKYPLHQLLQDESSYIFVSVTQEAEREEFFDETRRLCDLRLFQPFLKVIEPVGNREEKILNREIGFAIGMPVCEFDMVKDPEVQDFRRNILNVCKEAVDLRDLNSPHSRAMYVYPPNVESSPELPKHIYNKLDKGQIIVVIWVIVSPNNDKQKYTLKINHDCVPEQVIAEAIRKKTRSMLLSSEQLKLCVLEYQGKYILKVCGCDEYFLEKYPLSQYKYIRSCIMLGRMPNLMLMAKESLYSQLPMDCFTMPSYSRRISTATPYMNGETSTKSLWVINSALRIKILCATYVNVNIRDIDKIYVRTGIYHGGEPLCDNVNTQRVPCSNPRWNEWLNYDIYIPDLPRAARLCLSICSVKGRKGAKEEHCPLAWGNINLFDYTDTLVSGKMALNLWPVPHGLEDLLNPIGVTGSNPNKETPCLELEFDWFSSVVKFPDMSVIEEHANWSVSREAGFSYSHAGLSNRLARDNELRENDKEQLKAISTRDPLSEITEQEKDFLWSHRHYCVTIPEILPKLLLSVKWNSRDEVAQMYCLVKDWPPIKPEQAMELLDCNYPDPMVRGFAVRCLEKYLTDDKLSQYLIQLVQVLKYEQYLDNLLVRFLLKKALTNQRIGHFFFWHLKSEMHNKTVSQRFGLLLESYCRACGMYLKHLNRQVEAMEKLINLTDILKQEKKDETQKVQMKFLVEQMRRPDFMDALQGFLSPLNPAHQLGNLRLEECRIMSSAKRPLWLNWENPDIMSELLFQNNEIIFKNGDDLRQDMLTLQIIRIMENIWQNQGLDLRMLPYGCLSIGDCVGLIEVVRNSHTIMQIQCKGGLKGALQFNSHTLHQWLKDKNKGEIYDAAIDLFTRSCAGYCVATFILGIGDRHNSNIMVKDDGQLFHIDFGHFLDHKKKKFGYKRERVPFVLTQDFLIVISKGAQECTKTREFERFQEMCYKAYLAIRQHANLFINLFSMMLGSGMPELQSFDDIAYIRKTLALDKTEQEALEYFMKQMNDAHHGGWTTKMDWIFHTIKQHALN
# T3 sequence (P27986 whole entry partner): as the sequence (P27986 whole entry partner) above
# T2 sequence (P48736 whole entry): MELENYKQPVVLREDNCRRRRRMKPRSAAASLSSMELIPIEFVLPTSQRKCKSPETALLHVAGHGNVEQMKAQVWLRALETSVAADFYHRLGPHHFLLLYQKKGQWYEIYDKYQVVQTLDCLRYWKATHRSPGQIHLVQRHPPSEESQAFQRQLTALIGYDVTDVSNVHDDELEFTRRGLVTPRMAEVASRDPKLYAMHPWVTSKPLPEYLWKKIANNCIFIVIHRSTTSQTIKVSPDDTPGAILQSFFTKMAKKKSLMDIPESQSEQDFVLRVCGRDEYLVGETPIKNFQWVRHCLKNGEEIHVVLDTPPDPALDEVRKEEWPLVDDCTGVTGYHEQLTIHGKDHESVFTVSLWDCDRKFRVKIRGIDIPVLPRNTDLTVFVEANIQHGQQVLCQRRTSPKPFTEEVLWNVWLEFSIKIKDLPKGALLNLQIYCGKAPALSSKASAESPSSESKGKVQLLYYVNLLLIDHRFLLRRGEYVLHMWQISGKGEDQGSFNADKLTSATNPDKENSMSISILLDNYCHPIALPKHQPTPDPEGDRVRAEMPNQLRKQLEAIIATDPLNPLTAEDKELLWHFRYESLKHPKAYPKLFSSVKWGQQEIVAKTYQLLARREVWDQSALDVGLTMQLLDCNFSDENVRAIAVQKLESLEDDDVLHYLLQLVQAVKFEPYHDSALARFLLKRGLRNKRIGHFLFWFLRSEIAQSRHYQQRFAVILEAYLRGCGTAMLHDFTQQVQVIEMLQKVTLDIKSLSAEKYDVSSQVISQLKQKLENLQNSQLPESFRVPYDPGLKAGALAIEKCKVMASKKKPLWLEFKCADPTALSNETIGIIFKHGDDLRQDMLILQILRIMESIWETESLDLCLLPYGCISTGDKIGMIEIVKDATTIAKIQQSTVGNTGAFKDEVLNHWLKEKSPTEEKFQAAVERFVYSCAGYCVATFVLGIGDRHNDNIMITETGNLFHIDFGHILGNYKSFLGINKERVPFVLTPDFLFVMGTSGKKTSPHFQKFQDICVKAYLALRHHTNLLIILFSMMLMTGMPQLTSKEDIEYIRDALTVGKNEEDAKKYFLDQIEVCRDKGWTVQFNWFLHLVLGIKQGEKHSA
# T4 sequence (P42338 whole entry): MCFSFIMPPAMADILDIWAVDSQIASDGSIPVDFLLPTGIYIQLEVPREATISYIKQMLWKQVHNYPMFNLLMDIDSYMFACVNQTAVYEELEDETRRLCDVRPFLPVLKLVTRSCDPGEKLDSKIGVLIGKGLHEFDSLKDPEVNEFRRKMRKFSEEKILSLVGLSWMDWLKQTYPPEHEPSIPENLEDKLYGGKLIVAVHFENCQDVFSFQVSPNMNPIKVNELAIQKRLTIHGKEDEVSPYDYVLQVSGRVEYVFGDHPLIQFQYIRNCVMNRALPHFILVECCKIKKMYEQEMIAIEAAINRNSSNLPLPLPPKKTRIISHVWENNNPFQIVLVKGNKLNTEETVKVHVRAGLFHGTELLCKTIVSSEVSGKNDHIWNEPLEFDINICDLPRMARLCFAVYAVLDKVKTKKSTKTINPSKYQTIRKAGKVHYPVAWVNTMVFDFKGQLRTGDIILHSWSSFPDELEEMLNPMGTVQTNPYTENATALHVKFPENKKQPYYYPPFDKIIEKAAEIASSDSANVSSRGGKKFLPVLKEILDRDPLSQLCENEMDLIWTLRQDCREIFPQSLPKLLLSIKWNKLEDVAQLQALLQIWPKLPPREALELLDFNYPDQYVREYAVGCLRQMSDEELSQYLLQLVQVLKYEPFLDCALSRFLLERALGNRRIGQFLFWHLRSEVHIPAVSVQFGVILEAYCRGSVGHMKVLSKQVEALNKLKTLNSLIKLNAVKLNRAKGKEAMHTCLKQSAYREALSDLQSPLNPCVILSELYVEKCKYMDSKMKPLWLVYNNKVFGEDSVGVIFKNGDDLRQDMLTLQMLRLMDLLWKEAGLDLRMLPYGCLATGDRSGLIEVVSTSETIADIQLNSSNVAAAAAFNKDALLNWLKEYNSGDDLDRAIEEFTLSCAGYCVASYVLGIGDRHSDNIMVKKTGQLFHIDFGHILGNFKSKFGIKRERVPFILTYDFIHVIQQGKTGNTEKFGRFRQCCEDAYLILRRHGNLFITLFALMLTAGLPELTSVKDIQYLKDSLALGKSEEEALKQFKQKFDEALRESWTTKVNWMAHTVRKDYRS
# T4 sequence (P27986 whole entry partner): as the sequence (P27986 whole entry partner) above
SMILES,IC50 (mTOR),IC50 (PI3K γ),IC50 (PI3K α),IC50 (PI3K β),IC50 (PI3K δ)
CC(C)n1nc(-c2ccc3c(N)noc3c2)c2c(N)ncnc21 [compound 12],< 1 µM,–,–,–,–
Nc1nc2cc(-c3nn(C4CCOCC4)c4ncnc(N)c34)ccc2o1 [compound 5],< 0.1 µM,< 0.1 µM,< 1 µM,< 10 µM,< 1 µM
CC(=O)N1CCC(n2nc(-c3ccc4oc(N)nc4c3)c3c(N)ncnc32)CC1 [compound 7],–,< 10 µM,< 1 µM,< 10 µM,< 1 µM
Nc1nc2cc(-c3nn(C4CC(O)C4)c4ncnc(N)c34)ccc2o1 (stereo not drawn) [compound 26],–,< 0.1 µM,< 0.1 µM,–,–
CC(C)n1nc(-c2ccc3nc(N)oc3c2)c2c(N)ncnc21 [compound 4],< 1 µM,< 1 µM,< 10 µM,< 10 µM,< 1 µM
CC(C)n1nc(-c2ccc3onc(N)c3c2)c2c(N)ncnc21 [compound 10],< 10 µM,–,–,–,–
CC(=O)Nc1noc2cc(-c3nn(C(C)C)c4ncnc(N)c34)ccc12 [compound 11],< 1 µM,–,–,–,–
CC(CO)n1nc(-c2ccc3oc(N)nc3c2)c2c(N)ncnc21 (stereo not drawn) [compound 23],< 0.1 µM,< 10 µM,< 10 µM,> 10 µM,< 10 µM
CC(=O)Nc1nc2cc(-c3nn(C(C)C)c4ncnc(N)c34)ccc2o1 [compound 2],< 0.1 µM,< 1 µM,< 10 µM,> 10 µM,< 1 µM
CC(C)n1nc(-c2ccc3c(NC4CC4)noc3c2)c2c(N)ncnc21 [compound 14],< 10 µM,–,< 10 µM,–,< 10 µM
CC(C)n1cc(-c2ccc3oc(N)nc3c2)c2c(N)ncnc21 [compound 8],< 0.1 µM,< 1 µM,< 1 µM,> 10 µM,< 1 µM
CC(C)n1nc(-c2ccc3onc(NC4CC4)c3c2)c2c(N)ncnc21 [compound 16],> 10 µM,–,> 10 µM,–,> 10 µM
Nc1nc2cc(-c3nn(C4CC(=O)C4)c4ncnc(N)c34)ccc2o1 [compound 25],–,< 0.1 µM,< 1 µM,< 10 µM,< 1 µM
COC(=O)Nc1noc2ccc(-c3nn(C(C)C)c4ncnc(N)c34)cc12 [compound 19],< 10 µM,–,–,> 10 µM,> 10 µM
CNc1noc2cc(-c3nn(C(C)C)c4ncnc(N)c34)ccc12 [compound 13],< 10 µM,< 1 µM,< 10 µM,–,< 1 µM
COC(=O)Nc1noc2cc(-c3nn(C(C)C)c4ncnc(N)c34)ccc12 [compound 20],< 10 µM,–,–,> 10 µM,< 10 µM
Nc1nc2cc(-c3cn(C4CCOCC4)c4ncnc(N)c34)ccc2o1 [compound 9],–,–,< 10 µM,> 10 µM,–
CC(=O)Nc1nc2ccc(-c3nn(C(C)C)c4ncnc(N)c34)cc2o1 [compound 3],–,–,> 10 µM,–,–
Nc1noc2ccc(-c3nn(CC(=O)N4CCOCC4)c4ncnc(N)c34)cc12 [compound 17],> 10 µM,> 10 µM,> 10 µM,–,> 10 µM
Nc1nc2cc(-c3nn(C4CCC(N5CCOCC5)CC4)c4ncnc(N)c34)ccc2o1 (stereo not drawn) [compound 6],–,–,–,> 10 µM,< 1 µM
CC(C)(CO)n1nc(-c2ccc3oc(N)nc3c2)c2c(N)ncnc21 [compound 27],–,> 10 µM,< 10 µM,> 10 µM,< 1 µM
Cc1nc(N)c2c(-c3ccc4oc(N)nc4c3)nn(C(C)C)c2n1 [compound 21],< 1 µM,> 10 µM,> 10 µM,> 10 µM,> 10 µM
